Patent US9045445B2, “Glycine transporter-1 inhibitors, methods of making them, and uses thereof” (Albany Molecular Research, Inc., priority 2010, dated 2015)
Structures can show the parent of a compound that is named as a salt.

Columns and labels:
[1] = target: T1, glycine transporter-1 (GlyT-1) (Homo sapiens, UniProt P48067); assay: [14C]glycine uptake assay in JAR cells endogenously expressing GlyT-1 (scintillation proximity); format: cell-based; details: JAR cells, [14C]glycine 5 μM, 3 hour incubation; read-out: GlyT-1 IC50
T1 construct: JAR cells (ATCC#HTB-144), which endogenously express GlyT-1; host or cells: JAR human choriocarcinoma cells
T1 sequence (P48067 1-706): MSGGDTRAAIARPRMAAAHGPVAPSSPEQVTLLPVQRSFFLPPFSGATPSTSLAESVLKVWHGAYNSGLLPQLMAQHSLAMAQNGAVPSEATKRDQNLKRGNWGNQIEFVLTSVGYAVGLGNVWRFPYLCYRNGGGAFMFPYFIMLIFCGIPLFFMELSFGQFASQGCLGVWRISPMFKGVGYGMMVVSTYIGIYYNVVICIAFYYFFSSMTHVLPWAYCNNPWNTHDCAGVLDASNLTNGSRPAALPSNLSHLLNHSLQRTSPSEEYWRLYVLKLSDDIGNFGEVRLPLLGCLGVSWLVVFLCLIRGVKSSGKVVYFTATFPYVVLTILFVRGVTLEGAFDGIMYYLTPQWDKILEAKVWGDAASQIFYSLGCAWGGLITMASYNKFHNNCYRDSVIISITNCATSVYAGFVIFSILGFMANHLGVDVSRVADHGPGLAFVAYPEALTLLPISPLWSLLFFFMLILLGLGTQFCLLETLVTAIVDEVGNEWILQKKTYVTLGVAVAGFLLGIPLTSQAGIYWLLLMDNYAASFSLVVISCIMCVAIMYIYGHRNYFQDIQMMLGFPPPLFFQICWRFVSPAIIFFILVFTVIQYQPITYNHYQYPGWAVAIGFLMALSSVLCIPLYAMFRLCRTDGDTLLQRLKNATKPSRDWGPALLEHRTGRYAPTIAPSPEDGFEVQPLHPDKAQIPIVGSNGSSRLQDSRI
In short: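 Human choriocarcinoma JAR cells (endogenous GlyT-1) attached overnight, then pre-incubated 10 min at room temperature with compound in pH 7.4 Hepes uptake buffer containing 5 mM alanine and 0.75% DMSO. Uptake of 5 μM [14C]glycine over 3 h at 37 °C read by scintillation proximity; IC50 from four-parameter fit of nine-point curves.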

[2] = target: T2, glycine transporter-2 (GlyT-2) (Homo sapiens, UniProt Q9Y345); assay: [14C]glycine uptake assay in HEK-GlyT-2 transfected cells; format: cell-based; details: HEK-GlyT-2 cells
T2 construct: expressed in transfected cells
T2 sequence (Q9Y345 1-797): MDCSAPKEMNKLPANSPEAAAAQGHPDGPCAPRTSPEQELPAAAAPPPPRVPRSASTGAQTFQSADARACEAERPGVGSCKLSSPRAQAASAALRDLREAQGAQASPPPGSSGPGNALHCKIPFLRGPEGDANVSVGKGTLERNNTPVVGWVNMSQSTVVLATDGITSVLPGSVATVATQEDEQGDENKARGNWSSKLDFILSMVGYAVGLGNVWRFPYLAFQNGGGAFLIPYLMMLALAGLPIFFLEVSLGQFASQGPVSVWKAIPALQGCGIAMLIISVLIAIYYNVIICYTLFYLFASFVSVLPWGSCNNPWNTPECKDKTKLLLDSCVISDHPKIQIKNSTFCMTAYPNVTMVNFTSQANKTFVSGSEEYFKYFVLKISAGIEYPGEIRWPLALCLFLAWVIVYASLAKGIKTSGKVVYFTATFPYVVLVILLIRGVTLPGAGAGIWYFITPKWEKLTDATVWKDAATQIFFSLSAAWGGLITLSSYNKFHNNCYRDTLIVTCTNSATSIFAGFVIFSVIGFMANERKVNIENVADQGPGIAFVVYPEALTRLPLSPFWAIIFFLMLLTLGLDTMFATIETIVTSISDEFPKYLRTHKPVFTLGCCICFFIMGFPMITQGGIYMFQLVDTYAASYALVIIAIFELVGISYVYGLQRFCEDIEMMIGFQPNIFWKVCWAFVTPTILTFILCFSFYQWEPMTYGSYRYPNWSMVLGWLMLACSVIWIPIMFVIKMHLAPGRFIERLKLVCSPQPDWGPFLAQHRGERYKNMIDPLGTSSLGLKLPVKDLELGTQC

Compound	IC50 [1] [nM]	IC50 [2] [nM]
Cn1cc(S(=O)(=O)N2CCN(C3(CNC(=O)c4c(F)cc(Cl)cc4F)CCC(F)(F)CC3)CC2)nn1 [compound 230, 4-Chloro-N-((4,4-difluoro-1-(4-(1-methyl-1H-1,2,3-triazol-4-ylsulfonyl)piperazin-1-yl)cyclohexyl)methyl)-2,6-difluorobenzamide Hydrochloride]	3	> 75000
CCCS(=O)(=O)N1CCN(C2(CNC(=O)c3c(Cl)cccc3Cl)CCOCC2)CC1 [compound 119, 2,6-Dichloro-N-((4-(4-(propylsulfonyl)piperazin-1-yl)tetrahydro-2H-pyran-4-yl)methyl)benzamide Hydrochloride]	276	> 45000
CCCS(=O)(=O)N1CCN(C2(CNC(=O)c3c(OC)cc(C(F)(F)F)cc3C(F)(F)F)CCCCC2)CC1 [compound 21, 2-Methoxy-N-((1(1-(4-(propylsulfonyl)piperazin-1-yl)cyclohexyl)methyl)-4,6-bis(trifluoromethyl)benzamide Hydrochloride]	4	39000
2-Chloro-N-((4,4-difluoro- 1-(3-(propylsulfonyl)-3,8- diazabicyclo[3.2.1]octan- 8-yl)cyclohexyl)methyl)- 4-(trifluoromethyl) benzamide Hydrochloride [compound 261]	311	> 75000
CCCS(=O)(=O)N1CCN(C2(CNC(=O)c3c(C)cc(Cl)cc3C)CCC(F)(F)CC2)CC1 [compound 266, 4-Chloro-N-((4,4-difluoro-1-(4-(propylsulfonyl)piperazin-1-yl)cyclohexyl)methyl)-2,6-dimethylbenzamide Hydrochloride]	11	> 75000
CCCS(=O)(=O)N1CCN(C2(CNC(=O)c3ccc(OCc4ccccc4)cc3)CCCCC2)CC1 [compound 27, 4-(Benzyloxy)-N-((1-(4-(propylsulfonyl)piperazin-1-yl)cyclohexyl)methyl) benzamide Hydrochloride]	549	635
CCCS(=O)(=O)N1CCN(C2(CNC(=O)c3c(F)cc(Cl)cc3F)CCC(F)(F)CC2)CC1 [compound 259, 4-Chloro-N-((4,4-difluoro-1-(4-(propylsulfonyl)piperazin-1-yl)cyclohexyl)methyl)-2,6-difluorobenzamide Hydrochloride]	25	> 75000
CCCS(=O)(=O)N1CCN(C2(CNC(=O)c3c(Cl)cc(C(F)(F)F)cc3C(F)(F)F)CCC(F)(F)CC2)CC1 [compound 254, 2-Chloro-N-((4,4-difluoro-1-(4-(propylsulfonyl)piperazin-1-yl)cyclohexyl)methyl)-4,6-bis(trifluoromethyl) benzamide Hydrochloride]	7	> 75000
CCCS(=O)(=O)N1CCN(C2(CNC(=O)c3ccc(F)cc3OC)CCCCCC2)CC1 [compound 52, 4-Fluoro-2-methoxy-N-((1-(4-(propylsulfonyl)piperazin-1-yl)cycloheptyl)methyl) benzamide Hydrochloride]	404	> 75000
CCS(=O)(=O)N1CCN(C2(CNC(=O)c3ccc(C(F)(F)F)cc3Cl)CCC(F)(F)CC2)CC1 [compound 203, 2-Chloro-N-((1-(4-(ethylsulfonyl)piperazin-1-yl)-4,4-difluorocyclohexyl)methyl)-4-(trifluoromethyl) benzamide Hydrochloride]	94	> 75000
CCCS(=O)(=O)N1CCN(C2(CNC(=O)c3ccc(Cl)cc3Cl)CCCC2)CC1 [compound 72, 2,4-Dichloro-N-((1-(4-(propylsulfonyl)piperazin-1-yl)cyclopentyl)methyl) benzamide Hydrochloride]	171	> 75000

Other lines, results leading:

IC50 [1] [nM]	IC50 [2] [nM]	Compound
1	> 75000	Cc1cccc(C)c1C(=O)NCC1(N2CCN(S(=O)(=O)c3cn(C)cn3)CC2)CCCCC1 [compound 95, 2,6-Dimethyl-N-((1-(4-(1-methyl-1H-imidazol-4-ylsulfonyl)piperazin-1-yl)cyclohexyl)methyl) benzamide Hydrochloride]
357	> 75000	CCCS(=O)(=O)N1CCN(C2(CNC(=O)c3ccc(F)cc3OC)CCCCC2)CC1 [compound 46, 4-Fluoro-2-methoxy-N-((1-(4-(propyl-sulfonyl)piperazin-1-yl)cyclohexyl)methyl) benzamide Hydrochloride]
4	> 75000	CCCS(=O)(=O)N1CCN(C2(CNC(=O)c3c(C)cc(F)cc3OC)CCCCCC2)CC1 [compound 69, 4-Fluoro-2-methoxy-6-methyl-N-((1-(4-(propylsulfonyl)piperazin-1-yl)cycloheptyl)methyl) benzamide Hydrochloride]
523	> 75000	CCCS(=O)(=O)N1CCN(C2(CNC(=O)c3cccc(C(F)(F)F)c3)CCCCC2)CC1 [compound 28, N-((1-(4-(Propylsulfonyl)piperazin-1-yl)cyclohexyl)methyl)-3-(trifluoromethyl) benzamide Hydrochloride]
36	> 75000	CCCS(=O)(=O)N1CCN(C2(CNC(=O)c3ccccc3Cl)CCCCC2)CC1 [compound 8, 2-Chloro-N-((1-(4-(propylsulfonyl)piperazin-1-yl)cyclohexyl)methyl) benzamide Hydrochloride]
17	> 75000	CCCS(=O)(=O)N1CCN(C2(CNC(=O)c3c(F)cccc3OC)CCCCC2)CC1 [compound 44, 2-Fluoro-6-methoxy-N-((1-(4-(propyl-sulfonyl)piperazin-1-yl)cyclohexyl)methyl) benzamide Hydrochloride]
2	> 75000	Cn1cnc(S(=O)(=O)N2CCN(C3(CNC(=O)c4ccc(F)cc4Cl)CCCCC3)CC2)c1 [compound 101, 2-Chloro-4-fluoro-N-((1-(4-(1-methyl-1H-imidazol-4-ylsulfonyl)piperazin-1-yl)cyclohexyl)methyl) benzamide Hydrochloride]
319	> 75000	O=C(NCC1(N2CCN(S(=O)(=O)C3CCC3)CC2)CCCCC1)c1ccc(Cl)cc1Cl [compound 93, 2,4-Dichloro-N-((1-(4-(cyclobutylsulfonyl)piperazin-1-yl)cyclohexyl)methyl)benzamide Hydrochloride]
3	69200	Cn1cnc(S(=O)(=O)N2CCN(C3(CNC(=O)c4ccccc4C(F)(F)F)CCC(F)(F)CC3)CC2)c1 [compound 176, N-((4,4-Difluoro-1-(4-(1-methyl-1H-imidazol-4-ylsulfonyl)piperazin-1-yl)cyclohexyl)methyl)-2-(trifluoromethyl)benzamide Hydrochloride]
9	> 75000	Cn1cnc(S(=O)(=O)N2CCN(C3(CNC(=O)c4c(F)cccc4F)CCCCCC3)CC2)c1 [compound 107, 2,6-Difluoro-N-((1-(4-(1-methyl-1H-imidazol-4-ylsulfonyl)piperazin-1-yl)cycloheptyl)methyl) benzamide Hydrochloride]
29	> 45000	CCCS(=O)(=O)N1CCN(C2(CNC(=O)c3c(F)cccc3F)CCCCCC2)CC1 [compound 66, 2,6-Difluoro-N-((1-(4-(propylsulfonyl)piperazin-1-yl)cycloheptyl)methyl) benzamide Hydrochloride]
786	> 75000	CCCS(=O)(=O)N1CCN(C2(CNC(=O)c3ccc(F)cc3)CCCCC2)CC1 [compound 15, 4-Fluoro-N-((1-(4-(propylsulfonyl)piperazin-1-yl)cyclohexyl)methyl) benzamide Hydrochloride]
